Experimental data from US20050233984A1, “Composition for preventing or treating degenerative brain diseases comprising a hydrolysate of ginsenosides” (Digital Biotech Co., Ltd., priority 2002, published 2005).

How the values were obtained:
[1] = test system: neuroblastoma B103 cell line; assay: MTT test: preventing the toxicity of beta-amyloid; format: cell-based; conditions: for Survival rate (%): B103 cells, beta-amyloid-only control = 100%
Method: In order to examine the activities of the compounds prepared in the Reference Example in preventing the toxicity of beta-amyloid, the MTT analysis (Gillardon, F. et al., Brain Research. No. 6: pp. 169-172 (1996)) was carried out as follows.
5×10^3 cells of neuroblastoma B103 cell line (donated by Dr. David Schubert of the Salk Institute, USA) were placed in each well of a 96-well plate with 100 μl of DMEM (Dulbecco's Minimal Eagle's Medium) containing 10% fetal bovine serum (FBS), and cultured at 37° C. under 8% CO2 for 1 day. […] The cells were cultured at 37° C. for 18 hours, treated with 15 μl of MTT solution [10 mg/ml solution of 3-(4,5-dimethyl-2-thiazolyl)-2,5-diphenyl-2H-tetrazolium bromide in phosphate buffered saline (PBS)], and allowed to react at 37° C. for 3 to 4 hours. 100 μl of lysis buffer (10% SDS, 50% dimethylformamide, pH 4.7) was added to the wells, and the cells were cultured overnight at room temperature and relative humidity of 90%. Optical density (OD) of each well was measured at […] and 630 nm, respectively, using a scanning multiwell spectrophotometer, and then the OD value at 630 nm was subtracted from that at 570 nm.
Setting the survival rate of the control group treated only with beta-amyloid as 100%, relative survival rates of the experimental groups treated with compound Y, ginsenosides Mc and Rc, PPD and PPT, respectively, were calculated, and the results are shown in Table 2 and FIG. 1. The obtained values were statistically significant.
When the same procedure as above was repeated except that the cells were treated simultaneously with the test compound and beta-amyloid, or treated with the test compound one hour after the beta-amyloid treatment, the results were almost the same as above.
Further, in order to assess the concentration-dependent activity of a test compound, the above procedure was repeated using PPT at concentrations ranging from […].

[2] = target: T1, beta-secretase (Rattus norvegicus, UniProt P56819); assay: β-secretase inhibitory activity, fluorometric, B103 cell extract; format: biochemical
T1 construct: the cells were lysed up with MEST buffer; endogenous in cells; host or cells: B103 neuroblastoma cell extract (Triton X-100 lysate)
T1 sequence (P56819 46-501): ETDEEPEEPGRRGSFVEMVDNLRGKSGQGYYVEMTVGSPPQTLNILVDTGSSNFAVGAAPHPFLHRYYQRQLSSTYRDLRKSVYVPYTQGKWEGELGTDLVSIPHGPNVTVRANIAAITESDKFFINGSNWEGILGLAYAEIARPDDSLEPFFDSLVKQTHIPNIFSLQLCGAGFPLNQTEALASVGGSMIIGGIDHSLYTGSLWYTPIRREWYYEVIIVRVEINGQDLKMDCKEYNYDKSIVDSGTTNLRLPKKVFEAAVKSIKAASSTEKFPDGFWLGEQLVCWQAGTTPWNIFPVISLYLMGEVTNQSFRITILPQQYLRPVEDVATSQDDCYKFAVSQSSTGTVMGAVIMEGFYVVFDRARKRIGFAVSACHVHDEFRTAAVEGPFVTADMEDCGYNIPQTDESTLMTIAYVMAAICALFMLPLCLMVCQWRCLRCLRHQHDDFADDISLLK
Method: Peptide H4848 (Bachem), a known suppressor of beta-secretase, was used for a comparative agent and PPT was used as a test compound.
1.5×10^6 cells of neuroblastoma B103 cell line secreting APP were plated on a 100 mm dish with DMEM medium containing 10% FBS, and cultured overnight. Then, the cells were lysed up with MEST buffer (20 mM MES, 0.15 M NaCl, 0.5% Triton X-100, pH 6.0 (Bachem)) to obtain a cell extract.
[…] sodium acetate buffer (pH 4.5), distilled water, beta-secretase inhibitor, 5 μM M2465 (Bachem) as a substrate for beta-secretase and MEST buffer were mixed in order, in amounts as shown in Table 5.
The resulting mixtures were reacted at […] for 2 hours, and then read by a fluorometer with 360 nm excitation and 508 nm emission wavelengths. Enzyme inhibitory activity was determined based on the enzyme activity of the control.

[3] = test compound 1 μM + 25 μM beta-amyloid (25-35), 18 hours
[4] = test compound 1 μM alone, without beta-amyloid

## CC(C)=CCCC(C)(O)[C@H]1CC[C@]2(C)[C@@H]1[C@H](O)C[C@@H]1[C@@]3(C)CC[C@H](O)C(C)(C)[C@@H]3CC[C@]12C (stereo in doubt) [PPD, protopanaxadiol]
[1]; [3]
  Survival rate (%): 106.7 ± 6.9%
[1]; [4]
  Survival rate (%): 137.7 ± 4.8%

## CC(C)=CCC[C@](C)(O)[C@H]1CC[C@]2(C)[C@@H]1[C@H](O)C[C@@H]1[C@@]3(C)CC[C@H](O)C(C)(C)[C@@H]3[C@@H](O)C[C@]12C [PPT, protopanaxatriol]
[1]; FIG. 2, PPT concentration series
  concentration-dependent inhibitory activity against beta-amyloid toxicity (in words): began to show its inhibitory activity at the μM level
[1]; [3]
  Survival rate (%): 106.6 ± 1.2%
[1]; [4]
  Survival rate (%): 157.4 ± 3.3%
[1]; test compound 10 μM + 25 μM beta-amyloid (25-35), 18 hours
  Survival rate (%): 119.7 ± 8.5%
[1]; test compound 10 μM alone, without beta-amyloid
  Survival rate (%): 140.3 ± 6.4%
[2]; 100 nM PPT
  Enzyme Inhibition (% of control): 0 % of control
[2]; 1 μM PPT
  Enzyme Inhibition (% of control): 0.6 % of control
[2]; 10 μM PPT
  Enzyme Inhibition (% of control): 3.31 % of control
[2]; 100 μM PPT
  Enzyme Inhibition (% of control): 18.1 % of control
[2]; comparative group: H4848 100 nM
  beta-secretase inhibitory activity versus comparative group (in words): as good as the comparative group
